According to publication PMC7136958, “Targeting the pregnane X receptor using microbial metabolite mimicry” (EMBO Molecular Medicine, 2020):

Tests used:
468 kinases = test: DiscoverX scanMAX kinase panel (KINOMEscan); assay type: binding, human; details: for kinase inhibition (in words): panel of 468 kinases
Protocol: Kinase Assays. The kinase inhibition assays were conducted by DiscoverX on a platform assay by Ambit BioSciences as described previously 16,17. FKK6 was screened at a single concentration of 10 μM in duplicate. The scanMAXSM assay panel measures 468 kinases
(https://www.discoverx.com/services/drug-discovery-development-services/kinase-profiling/kinomescan/scanmax). The assays measure a compound’s ability to inhibit binding of a canonical ligand substrate, with 0% activity of control corresponding to full inhibition and 100% activity of control to no inhibition. […]
quantitative measure of compound selectivity based on the number of kinase hits (enzymes inhibited) divided by the total number of distinct kinases tested. Three different activity cut-offs were analyzed – S(35) or % activity of control < 35; S(10) or % activity of control < 10; and S(1) or % activity of control < 1. To illustrate effect or lack of effect, an image of the entire family of kinases tested were grouped by families and S(35). The TREEspot Kinase dendrogram image was generated using TREEspot™ Software Tool and reprinted with permission from KINOME scan®, a division of DiscoveRx […]

[1] = tested on: TLR4, CYP3A4, MDR1 mRNA in Caco-2 cells; test: RT-qPCR of TLR4, CYP3A4, MDR1 mRNA in PXR-transfected Caco-2 cells; assay type: cell-based, human; details: 10 μM; for CYP3A4 mRNA expression / MDR1 mRNA expression (Fold Change) / TLR4 mRNA expression: 24 h; for CYP3A4 Mean Fold expression / MDR1 Mean Fold expression / hTLR4 Mean Fold expression: DMSO = 1
Protocol: RT–qPCR was performed using Thermo Fisher PowerUp SYBR Green Master Mix (# A25742) and Thermo Fisher qPCR 7900HT. Each sample was repeated in quadruplicate and normalized to internal control, GAPDH. The entire experiment was repeated at least two separate times. The primer sequences are noted in Table 2.

NF-κB = NF-κB nuclear translocation (immunofluorescence) in Caco-2 cells; assay type: cell-based, human; details: 25 μM, with cytokines, 2 or 12 h
Protocol: HIOs and Caco‐2 were exposed to a pro‐inflammatory cytokine cocktail (10 ng/ml IFN‐γ, 10 ng/ml TNF‐α, 50 ng/ml IL‐1β) for 2–24 h in combination with DMSO or FKK5 and FKK6 compounds (10 and 25 μm). Relative mRNA levels of IL‐8 and IL‐6 were determined using quantitative real‐time PCR, with normalization to GAPDH. RNA was isolated using an RNeasy Mini Kit (Qiagen) as per the manufacturer's instructions. On column DNase (Qiagen) was used to remove any contaminating DNA. Next, cDNA was formed using iScript cDNA Synthesis Kit (Bio‐Rad) and 100 ng RNA. qRT–PCR was performed with SsoAdvanced Universal SYBR Green Kit (Bio‐Rad). The following primers were used: IL‐8 Forward: […]; IL‐8 Reverse: […]; IL‐6 Forward: […]; IL‐6 Reverse: […]; GAPDH Forward: […]; GAPDH Reverse: […]. For immunofluorescent staining of NF‐ĸB translocation to the cell nucleus, HIOs and Caco‐2 cell monolayers were fixed in 4% formaldehyde (in 1 × PBS) overnight at 4°C. The formaldehyde was removed by washing with 1 × PBS, and an antigen retrieval step was performed by incubating in 10 mM sodium citrate buffer in a vegetable steamer for 20 min. The samples were then blocked with normal donkey serum (10% in PBS with 0.3% Triton X‐100) for 1 h. […]

PXR = target: T1, PXR (Homo sapiens, UniProt O75469); test: Ligand efficiency metric (LEM) analysis; set-up: expressed in transfected cells; host or cells: LS180; details: NSEI-nBEI plane, from PXR reporter Emax
T1 sequence (O75469 1-434): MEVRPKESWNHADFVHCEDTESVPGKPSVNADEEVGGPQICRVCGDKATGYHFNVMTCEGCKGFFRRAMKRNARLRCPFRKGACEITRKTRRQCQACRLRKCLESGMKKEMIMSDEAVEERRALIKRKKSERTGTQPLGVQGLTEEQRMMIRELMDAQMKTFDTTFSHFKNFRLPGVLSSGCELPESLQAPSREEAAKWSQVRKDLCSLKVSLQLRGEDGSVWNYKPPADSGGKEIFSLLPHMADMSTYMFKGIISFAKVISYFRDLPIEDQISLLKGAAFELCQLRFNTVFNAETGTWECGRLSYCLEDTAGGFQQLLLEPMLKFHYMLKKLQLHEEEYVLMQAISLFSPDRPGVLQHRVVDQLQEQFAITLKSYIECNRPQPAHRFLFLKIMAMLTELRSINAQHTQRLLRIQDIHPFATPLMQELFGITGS
Excerpt: Ligand efficiency metric (LEM) analysis for FKK ligand efficiency. The ligand efficiency metrics (LEMs) of compounds FKK1 to 10 and FKK999 as a reference compound, have been analyzed by using a web tool named AtlasCBS which represents LEMs as variables for a Cartesian mapping of chemico-biological space (CBS). In particular, Cartesian planes combine three critical variables in drug discovery (affinity, size, and polarity) into easily interpretable ‘efficiency planes’ useful to guide a drug discovery process. In the Cartesian plane, each target:ligand pair appears as a point whose coordinates are given by pairs of values derived from the affinity of the ligand toward the target (Ki or equivalent) in relation to its size (MW or number of non-hydrogen atoms NHA), and its polarity (expressed as Polar Surface Area, PSA, or number of polar atoms, NPOL = count of N + O). The first one represents a size-related LEM and the second a polarity-related LEM. Consistently, compounds that correspond to marketed drugs typically occupy the upper right quadrant of the plots (‘Nort h-East’ direction, NE), where both the efficiency -pe r-size and efficiency -per-polarity are optimized 1,2.
Our results are represented in the efficiency plane NS EI-nBEI where:
NSEI = –log Ki/NPOL (N, O) = pKi/NPOL (N, O)
As a measure of activity of the above compounds, the reciprocal of the percentage efficacy values (1/Efficacy [%]) obtained in the PXR-dependent luciferase activity test (Emax values from Fig. 1) were used in lieu of the affinity constants (Ki in the above equations). FKK4 would appear as the most efficient compound since it is placed in the NE panel (GL, unpublished observations). However, this congener might suffer from metabolic liability with its N-protecting group possibly generating toxic aldehydes by oxidative cleavage in vivo. Unambiguously, the two most efficient compounds besides FKK4 are FKK5 and FKK6 which were therefore considered suitable lead compounds, as al so

SMILES	kinase inhibition (in words) (468 kinases)	CYP3A4 mRNA expression [1]	MDR1 mRNA expression (Fold Change) [1]	TLR4 mRNA expression [1]	CYP3A4 Mean Fold expression [1]	MDR1 Mean Fold expression [1]	hTLR4 Mean Fold expression [1]	NF-κB localisation (NF-κB)	LEM analysis prediction (PXR)	Interactions Mapped (TREEspot) (468 kinases; 10 μM)	Number of Hits, S(1) (468 kinases; 10 μM, 403 non-mutant kinases)	Number of Hits, S(10) (468 kinases; 10 μM, 403 non-mutant kinases)	Number of Hits, S(35) (468 kinases; 10 μM, 403 non-mutant kinases)
O=C(c1ccncc1)c1cc2ccccc2n1S(=O)(=O)c1ccccc1 [FKK5, (1-(phenylsulfonyl)-1H-indol-2-yl)(pyridin-4-yl)methanone]	neither of these compounds inhibited the kinases tested	3.7 fold	5.12 fold	0.39 fold	3.7	5.12	0.39	increased cytoplasmic	best candidates for further studies	–	–	–	–
C#CCC(O)(c1ccncc1)c1cc2ccccc2n1S(=O)(=O)c1ccccc1 (stereo not shown) [FKK6]	neither of these compounds inhibited the kinases tested	3.29 fold	6.45 fold	0.49 fold	3.29	6.45	0.49	increased cytoplasmic	best candidates for further studies	0	0	0	0
